# pIC50, pKd: −log10 of the molar value.
# Assays:
# [1] = tested on: JAK1/TYK2 pSTAT5 (Tyr694/699) in THP-1 cell line; assay: IFNa-stimulated JAK1/TYK2 pSTAT5 (Tyr694/699) inhibition cellular assay, AlphaLISA; type: cell-based; details: Homo sapiens; THP-1 cells, IFNa-stimulated, AlphaLISA (Assay B); read-out: Cellular_THP1_IFNa-pSTATS_TYK2
# How it was run: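 THP-1 cells (2e4/well in HBSS) were preincubated with compound (8 points, 6-fold steps from 10000 nM final) for 1 h at 37 °C, then stimulated with IFNa (added at 100 ng/mL) for 30 min. Lysate pSTAT5 was read by AlphaLISA at 615 nm. IC50 came from a 4-parameter fit with bottom 0 and Hill −1.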
# [2] = molecular target: T1, TYK2 JH2 (Homo sapiens, UniProt P29597); assay: TYK2 JH2 binding assay (KINOMEscan KdELECT competitive binding); details: TYK2 JH2 domain, KINOMEscan KdELECT (Assay A); read-out: Biochemical TYK2_DiscoverX_JH2_BND_Kd
# T1 construct: purchased DiscoverX (KINOMEscan KdELECT service); host or cells: E. coli BL21-derived (T7 phage display) or HEK-293
# How it was run: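 JH2-domain fragment, expressed as T7 phage tag in BL21-derived E. coli or DNA-tagged from HEK-293, competed with test compound against bead-immobilized biotinylated ligand in binding buffer (0.9% DMSO). 1 h shaking at room temperature; bound kinase eluted with 0.5 μM free ligand and quantified by qPCR. Kd from 11-point 3-fold dilutions.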
# T1 sequence (P29597 589-875 limits assumed): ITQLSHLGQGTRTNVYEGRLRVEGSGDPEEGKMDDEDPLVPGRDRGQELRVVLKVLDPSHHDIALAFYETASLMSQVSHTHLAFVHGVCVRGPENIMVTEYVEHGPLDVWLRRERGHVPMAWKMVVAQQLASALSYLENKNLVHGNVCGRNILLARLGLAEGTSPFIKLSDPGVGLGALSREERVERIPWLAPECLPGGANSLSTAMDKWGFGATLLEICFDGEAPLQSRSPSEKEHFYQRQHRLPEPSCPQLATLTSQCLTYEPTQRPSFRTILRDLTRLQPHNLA
SMILES,pIC50 [1],pKd [2]
"CNc1ncc(-c2ccc(-c3cn(C)nn3)cc2)c2cc(NC(=O)C3CC3)ncc12 [Example 871, N-(5-(4-(1-methyl-1H-1,2,3-triazol-4-yl)phenyl)-8-(methylamino)-2,7-naphthyridin-3-yl)cyclopropanecarboxamide]",≥ 6.30,≥ 7.00
"CNc1ncc(-c2nn3ccnc3s2)c2cc(NC(=O)C3CC3)ncc12 [Example 872, N-(5-(imidazo[2,1-b][1,3,4]thiadiazol-2-yl)-8-(methylamino)-2,7-naphthyridin-3-yl)cyclopropanecarboxamide]",≥ 6.30,≥ 7.00
"CNc1ncc(-c2nn3c(C)ncc3o2)c2cc(NC(=O)C3CC3)ncc12 [Example 873, N-(8-(methylamino)-5-(5-methylimidazo[5,1-b][1,3,4]oxadiazol-2-yl)-2,7-naphthyridin-3-yl)cyclopropanecarboxamide]",≥ 6.30,≥ 7.00
"CNc1ncc(-c2nc3c(o2)CCC(OC)C3)c2cc(NC(=O)C3CC3)ncc12 (stereo not shown) [Example 874, N-(5-(5-methoxy-4,5,6,7-tetrahydrobenzo[d]oxazol-2-yl)-8-(methylamino)-2,7-naphthyridin-3-yl)cyclopropanecarboxamide]",≥ 6.30,≥ 7.00
"CNc1ncc(-c2cc3cc(OC)ccn3n2)c2cc(NC(=O)C3CC3)ncc12 [Example 875, N-(5-(5-methoxypyrazolo[1,5-a]pyridin-2-yl)-8-(methylamino)-2,7-naphthyridin-3-yl)cyclopropanecarboxamide]",≥ 6.30,≥ 7.00
"CCNc1ncc(-c2cc3ccc(N4CCOCC4)cn3n2)c2cc(NC(=O)C3CC3)ncc12 [Example 876, N-(8-(ethylamino)-5-(6-morpholinopyrazolo[1,5-a]pyridin-2-yl)-2,7-naphthyridin-3-yl)cyclopropanecarboxamide]",≥ 6.30,≥ 7.00
"CNc1ncc(-c2cc3ccc(OC)cn3n2)c2cc(NC(=O)[C@H]3C[C@H]3C)ncc12 [Example 877, (1S,2R)—N-(5-(6-methoxypyrazolo[1,5-a]pyridin-2-yl)-8-(methylamino)-2,7-naphthyridin-3-yl)-2-methylcyclopropane-1-carboxamide]",≥ 6.30,≥ 7.00
"CNc1ncc(-c2cnc3ccc(OC)cn23)c2cc(NC(=O)[C@H]3C[C@H]3C)ncc12 [Example 878, (1S,2R)—N-(5-(6-methoxyimidazo[1,2-a]pyridin-3-yl)-8-(methylamino)-2,7-naphthyridin-3-yl)-2-methylcyclopropane-1-carboxamide]",< 6.30,≥ 7.00
"CNc1ncc(-c2cn3cc(OC)ccc3n2)c2cc(NC(=O)C3CC3)ncc12 [Example 879, N-(5-(6-methoxyimidazo[1,2-a]pyridin-2-yl)-8-(methylamino)-2,7-naphthyridin-3-yl)cyclopropanecarboxamide]",≥ 6.30,≥ 7.00
"CNc1ncc(-c2cn3cc(N4CCOCC4)ccc3n2)c2cc(NC(=O)C3CC3)ncc12 [Example 880, N-(8-(methylamino)-5-(6-morpholinoimidazo[1,2-a]pyridin-2-yl)-2,7-naphthyridin-3-yl)cyclopropanecarboxamide]",≥ 6.30,≥ 7.00
"CNc1ncc(-c2cc(-c3ccccc3)[nH]n2)c2cc(NC(=O)C3CC3)ncc12 [Example 881, N-(8-(methylamino)-5-(5-phenyl-1H-pyrazol-3-yl)-2,7-naphthyridin-3-yl)cyclopropanecarboxamide]",< 6.30,≥ 7.00
"CNc1ncc(C#Cc2ccc3nnn(C)c3c2)c2cc(NC(=O)C3CC3)nnc12 [Example 882, N-(5-((1-methyl-1H-benzo[d][1,2,3]triazol-6-yl)ethynyl)-8-(methylamino)pyrido[3,4-c]pyridazin-3-yl)cyclopropanecarboxamide]",≥ 6.30,≥ 7.00
"CNc1ncc(C#Cc2ccc(N3CCO[C@H](C)C3)cc2)c2cc(NC(=O)C3CC3)nnc12 [Example 883, (R)—N-(8-(methylamino)-5-((4-(2-methylmorpholino)phenyl)ethynyl)pyrido[3,4-c]pyridazin-3-yl)cyclopropanecarboxamide]",≥ 6.30,≥ 7.00
"CNc1ncc(C#Cc2ccc(OC)cn2)c2cc(NC(=O)C3CC3)nnc12 [Example 884, N-(5-((5-methoxypyridin-2-yl)ethynyl)-8-(methylamino)pyrido[3,4-c]pyridazin-3-yl)cyclopropanecarboxamide]",≥ 6.30,≥ 7.00
"CNc1ncc(-c2nc3ccc(N4CCOCC4)cn3n2)c2cc(NC(=O)C3CC3)nnc12 [Example 885, N-(8-(methylamino)-5-(6-morpholino-[1,2,4]triazolo[1,5-a]pyridin-2-yl)pyrido[3,4-c]pyridazin-3-yl)cyclopropanecarboxamide]",≥ 6.30,≥ 7.00
"CNc1ncc(-c2nc3ccc(N4CCOCC4)cn3n2)c2cc(NC(=O)C3(F)CC3)nnc12 [Example 886, 1-fluoro-N-(8-(methylamino)-5-(6-morpholino-[1,2,4]triazolo[1,5-a]pyridin-2-yl)pyrido[3,4-c]pyridazin-3-yl)cyclopropane-1-carboxamide]",≥ 6.30,≥ 7.00
"CNc1ncc(-c2nc3c(F)cccn3n2)c2cc(NC(=O)C3CC3)nnc12 [Example 887, N-(5-(8-fluoro-[1,2,4]triazolo[1,5-a]pyridin-2-yl)-8-(methylamino)pyrido[3,4-c]pyridazin-3-yl)cyclopropanecarboxamide]",≥ 6.30,≥ 7.00
"CNc1ncc(-c2nc3cc(OC)ccc3o2)c2cc(NC(=O)C3CC3)nnc12 [Example 888, N-(5-(5-methoxybenzo[d]oxazol-2-yl)-8-(methylamino)pyrido[3,4-c]pyridazin-3-yl)cyclopropanecarboxamide]",≥ 6.30,≥ 7.00
"CNc1ncc(C#Cc2ccc(OC)cn2)c2c(Cl)c(NC(=O)C3CC3)ncc12 [Example 889, N-(4-chloro-5-((5-methoxypyridin-2-yl)ethynyl)-8-(methylamino)-2,7-naphthyridin-3-yl)cyclopropanecarboxamide]",< 6.30,≥ 7.00
"CNc1ncc(-c2nc3cc(N4CCO[C@@H](C)C4)ccc3o2)c2cc(NC(=O)C3CC3)nnc12 [Example 890, (S)—N-(8-(methylamino)-5-(5-(2-methylmorpholino)benzo[d]oxazol-2-yl)pyrido[3,4-c]pyridazin-3-yl)cyclopropanecarboxamide]",≥ 6.30,≥ 7.00
"CNc1ncc(C#Cc2ccc(OC3CN(C(C)=O)C3)cc2)c2cc(NC(=O)C3CC3)nnc12 [Example 893, N-(5-((4-((1-acetylazetidin-3-yl)oxy)phenyl)ethynyl)-8-(methylamino)pyrido[3,4-c]pyridazin-3-yl)cyclopropanecarboxamide]",≥ 6.30,≥ 7.00
"CNc1ncc(C#Cc2ccc3c(c2)OCCO3)c2cc(NC(=O)C3CC3)ncc12 [Example 894, N-(5-((2,3-dihydrobenzo[b][1,4]dioxin-6-yl)ethynyl)-8-(methylamino)-2,7-naphthyridin-3-yl)cyclopropanecarboxamide]",≥ 6.30,≥ 7.00
"CNc1ncc(C#Cc2ccc3c(c2)OC=CO3)c2cc(NC(=O)C3CC3)ncc12 [Example 895, N-(5-(benzo[b][1,4]dioxin-6-ylethynyl)-8-(methylamino)-2,7-naphthyridin-3-yl)cyclopropanecarboxamide]",≥ 6.30,≥ 7.00
"CNc1ncc(C#Cc2ccc(C3CCN(C)C3=O)cc2)c2cc(NC(=O)C3CC3)ncc12 (stereo not shown) [Example 896, N-(5-((4-(1-methyl-2-oxopyrrolidin-3-yl)phenyl)ethynyl)-8-(methylamino)-2,7-naphthyridin-3-yl)cyclopropanecarboxamide]",≥ 6.30,≥ 7.00
"CNc1ncc(C#Cc2cn(C)c(C(F)(F)F)n2)c2cc(NC(=O)C3CC3)ncc12 [Example 897, N-(5-((1-methyl-2-(trifluoromethyl)-1H-imidazol-4-yl)ethynyl)-8-(methylamino)-2,7-naphthyridin-3-yl)cyclopropanecarboxamide]",≥ 6.30,≥ 7.00
"[2H]C([2H])([2H])n1cc(C#Cc2cnc(NC)c3cnc(NC(=O)C4CC4)cc23)nc1C [Example 898, N-(5-((2-methyl-1-(methyl-d3)-1H-imidazol-4-yl)ethynyl)-8-(methylamino)-2,7-naphthyridin-3-yl)cyclopropanecarboxamide]",≥ 6.30,≥ 7.00
"CNc1ncc(C#Cc2cn3c(n2)CCCC3)c2cc(NC(=O)C3CC3)ncc12 [Example 899, N-(8-(methylamino)-5-((5,6,7,8-tetrahydroimidazo[1,2-a]pyridin-2-yl)ethynyl)-2,7-naphthyridin-3-yl)cyclopropanecarboxamide]",≥ 6.30,≥ 7.00
"[2H]C([2H])([2H])n1ccc(C#Cc2cnc(NC)c3cnc(NC(=O)C4CC4)cc23)n1 [Example 900, N-(5-((1-(methyl-d3)-1H-pyrazol-3-yl)ethynyl)-8-(methylamino)-2,7-naphthyridin-3-yl)cyclopropanecarboxamide]",≥ 6.30,≥ 7.00
"[2H]C([2H])([2H])n1nccc1C#Cc1cnc(NC)c2cnc(NC(=O)C3CC3)cc12 [Example 901, N-(5-((1-(methyl-d3)-1H-pyrazol-5-yl)ethynyl)-8-(methylamino)-2,7-naphthyridin-3-yl)cyclopropanecarboxamide]",≥ 6.30,≥ 7.00

# Reference: patent publication US20240025906A1 (NEURON23, INC., priority 2022, published 2024)
